Consider one molecule from patent US20140137294A1, “GLUCOSINOLATE TRANSPORTER PROTEIN AND USES THEREOF” (UNIVERSITY OF COPENHAGEN, priority 2010, published 2014).

In this test the target is T1, AtGTR2 (Arabidopsis thaliana, UniProt Q9LV10).
T1 construct: expressed in transfected cells; host or cells: Xenopus oocytes injected with in vitro transcribed cRNA (vector pNB1u)
T1 sequence (Q9LV10 1-616): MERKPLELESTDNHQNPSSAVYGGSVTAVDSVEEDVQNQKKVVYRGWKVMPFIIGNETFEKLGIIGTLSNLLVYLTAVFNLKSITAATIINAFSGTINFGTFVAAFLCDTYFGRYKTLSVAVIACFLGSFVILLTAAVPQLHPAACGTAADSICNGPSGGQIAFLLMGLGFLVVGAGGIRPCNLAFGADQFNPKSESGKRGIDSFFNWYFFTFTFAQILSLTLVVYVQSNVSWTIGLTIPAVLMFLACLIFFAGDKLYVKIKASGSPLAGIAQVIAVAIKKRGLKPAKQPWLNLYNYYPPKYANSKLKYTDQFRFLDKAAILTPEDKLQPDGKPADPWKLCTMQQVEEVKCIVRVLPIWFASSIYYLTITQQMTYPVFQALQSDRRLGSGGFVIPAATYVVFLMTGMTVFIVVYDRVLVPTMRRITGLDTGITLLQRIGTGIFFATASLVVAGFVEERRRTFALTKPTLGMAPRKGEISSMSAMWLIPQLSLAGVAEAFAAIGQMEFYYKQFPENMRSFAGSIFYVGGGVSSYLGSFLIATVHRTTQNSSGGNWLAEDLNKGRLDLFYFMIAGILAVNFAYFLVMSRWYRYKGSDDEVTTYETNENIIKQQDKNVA
Put plainly: Uptake of C14-labeled pOHBG in AtGTR2 expressing oocytes in presence of excess competitor. The test is classed as cell-based. The settings on record: 50× excess unlabeled competitor, AtGTR2, pH 5. The protocol: FIG. 3: Biochemical analysis of AtGTR1 and 2 mediated GSL transport in Xenopus oocytes. A and B, pH dependence of AtGTR-mediated GSL transport. A, AtGTR2 mediated 4-MTB uptake measured by LC-MS analysis of oocyte extracts, n=3 oocytes. B, AtGTR1 currents induced by 1 mM 4-MTB were measured at different membrane potentials at pH 5 ([…]), pH 6 (♦), and pH 7 (▴). Currents were normalized to the current induced at pH 5 at −60 mV, error bars are SD, n=4 oocytes. C and D, kinetic analysis of AtGTR-mediated glucosinolate transport. […]
The substrate specificity investigations were extended to include substrates previously identified for the NRT/PTR transporter family namely di- and tripeptides and nitrate. […] However, perfusing with 1 mM NO3^− did result in currents but these amounted only to 1/10th of currents measured when perfusing with 100 μM 4-MTB (FIG. 3F). […]
For assays with radiolabeled substrates, single oocytes were ruptured in 100 μl 10% SDS in 4 ml scintillation vials by shaking for 20-30 minutes. 2.5 ml EcoScint™ scintillation fluid (National Diagnostics) was added, and imported compounds quantified by scintillation counting. For assays with unlabeled substrates, oocyte extracts were analysed by LC-MS. Oocytes were analyzed in batches of 5 oocytes per repetition. […]

The structures appear in SMILES notation.

For the molecule `CSCCCC/C(=N/OS(=O)(=O)O)S[C@@H]1O[C@H](CO)[C@@H](O)[C@H](O)[C@H]1O` [4-MTB, 4-methylthiobutyl glucosinolate], the “effect on uptake of 40 μM C14-labeled pOHBG” value is “reduced the uptake of pOHBG to background levels”.
